Reference: patent publication US20250188059A1, “NOVEL COMPOUND AND USE THEREOF FOR INHIBITING CHECKPOINT KINASE 2” (ARUM THERAPEUTICS INC, priority 2022, published 2025)
Read-outs that look alike come from different tables or passages of the source.

Columns and labels:
[1] = system: human breast cancer cell line MCF-7; assay: Cancer cell growth inhibition test (CellTiter-Glo); assay type: cell-based; settings: MCF-7, 72 hours
Procedure: The human breast cancer cell line MCF-7 was treated with trypsin and harvested. The number of cells was counted, and about 3000 cells/80 μl per well were inoculated into a 96 well plate (Corning) and then incubated in a 37° C. incubator for 24 hours. Thereafter, the example compounds were diluted in a culture solution at various concentrations, and each well was treated with 20 μl and stored in a cell culture incubator for 72 hours. In the case of the group administered in combination, the example compounds and cisplatin or doxorubicin were diluted in a culture solution at various concentrations, and each well was treated with 20 μl. After 72 hours, each well was treated with 30 μl of CellTiter-Glo solution (Promega), and the luminescence was read on a Victor3 multi label reader (PerkinElmer).
Relative viability (%)=(value of each test well/value of well treated with DMSO alone)×100
The results obtained for each concentration for each example compound were the average values obtained from three wells, and PRIZM software was used for analysis of the results.

Chk2 kinase = Chk2 kinase (Homo sapiens (Human), UniProt O96017); assay: Chk2 kinase inhibitory activity (LanthaScreen TR-FRET); assay type: biochemical; settings: graded
Chk2 kinase, sequence (O96017 whole entry): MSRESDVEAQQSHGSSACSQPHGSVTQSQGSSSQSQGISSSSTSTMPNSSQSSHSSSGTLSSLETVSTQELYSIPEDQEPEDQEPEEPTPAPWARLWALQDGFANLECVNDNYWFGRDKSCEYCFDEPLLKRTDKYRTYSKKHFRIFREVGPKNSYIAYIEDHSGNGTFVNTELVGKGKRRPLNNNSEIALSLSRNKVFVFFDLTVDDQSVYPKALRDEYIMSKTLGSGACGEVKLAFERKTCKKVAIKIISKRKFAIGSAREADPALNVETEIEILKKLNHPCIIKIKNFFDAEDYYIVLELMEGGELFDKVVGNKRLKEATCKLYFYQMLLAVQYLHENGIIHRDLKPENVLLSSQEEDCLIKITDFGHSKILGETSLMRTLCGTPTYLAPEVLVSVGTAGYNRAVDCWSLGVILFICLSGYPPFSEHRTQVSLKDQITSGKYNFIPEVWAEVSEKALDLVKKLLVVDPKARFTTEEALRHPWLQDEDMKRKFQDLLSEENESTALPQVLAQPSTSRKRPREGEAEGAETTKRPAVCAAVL
Procedure: The compounds of Examples 1 to 66 were diluted at various concentrations and transferred to a 384-well plate by 5 μl, and 10 μl of a mixed solution (2×) of Chk1 kinase (Thermo, P3040) or Chk2 kinase (Thermo, PV3367) and a substrate (Thermo, PV3508) was added to wells treated with the compounds. 5 μl of an ATP solution at a 4× concentration was added to the test well and reacted at room temperature for 1 hour. 20 μl of LanthaScreen Terbium-CREB p-Ser 133 antibody (Thermo, PV3542) was added to the reaction well and incubated at room temperature for 30 minutes. Conversion data was measured by an EnVision 2014 multi label reader (PerkinElmer). The activity for each concentration was determined by the ratio (FRET ratio=FR) of the value obtained by dividing the value at 520 nm by the value at 490 nm among the emission wavelength values for each wavelength (Em520/Em490). The results obtained for each concentration of the compounds were the average values obtained in two wells, and the IC50 values of the compounds were calculated using PRIZM software for analysis of the results. IC50 in Table 7 was graded as follows.

[2] = Homo sapiens, MCF7, 72 h, graded, read-out: Celltiter glo analysis (IC50)
[3] = Homo sapiens, MCF7, 72 h, alone, read-out: Administered alone (IC50)

| SMILES | IC50 [1, 2] [µM] | IC50 (Chk2 kinase) [µM] | also measured |
| --- | --- | --- | --- |
| Nc1ncc(-c2cc(-c3cnn(CC(F)(F)F)c3)ncc2F)nc1C(=O)N[C@@H]1CNCC[C@H]1O [Example 3, 3-amino-6-(5-fluoro-2-(1-(2,2,2-trifluoroethyl)-1H-pyrazol-4-yl)pyridin-4-yl)-N-((3R,4R)-4-hydroxypiperidin-3-yl)pyrazine-2-carboxamide] | 10 to 100 | ≤ 0.01 | – |
| CC(C)(O)Cn1cc(-c2cc(-c3cnc(N)c(C(=O)N[C@H]4CCCNC4)n3)ccn2)cn1 [Example 5, (S)-3-amino-6-(2-(1-(2-hydroxy-2-methylpropyl)-1H-pyrazol-4-yl)pyridin-4-yl)-N-(piperidin-3-yl) pyrazine-2-carboxamide] | > 100 | ≤ 0.01 | – |
| Nc1ncc(-c2cc(-c3cnn(CC(F)(F)F)c3)ccc2F)nc1C(=O)N[C@@H]1CNCC(F)(F)C1 [Example 12, (S)-3-amino-N-(5,5-difluoropiperidin-3-yl)-6-(2-fluoro-5-(1-(2,2,2-trifluoroethyl)-1H-pyrazol-4-yl)phenyl)pyrazine-2-carboxamide] | ≤ 10 | > 1 | – |
| N.N.[Cl][Pt][Cl] [cisplatin, reference compound] | – | – | IC50 ([1]; alone, read-out: Administered alone (IC50)): 26 µM |
| CC1(C)Cc2c(-c3cc(-c4cnc(N)c(C(=O)N[C@H]5CCCNC5)n4)ccn3)cnn2C1 [Example 49, (S)-3-amino-6-(2-(5,5-dimethyl-5,6-dihydro-4H-pyrrolo[1,2-b]pyrazol-3-yl)pyridin-4-yl)-N-(piperidin-3-yl)pyrazine-2-carboxamide] | 10 to 100 | ≤ 0.01 | – |
| CC(C)(O)Cn1cc(-c2cc(-c3cnc(N)c(C(=O)NC4CNC[C@@H](F)C4)n3)ccn2)cn1 (stereo partly drawn) [Example 34, 3-amino-N-((3S,5S)-5-fluoropiperidin-3-yl)-6-(2-(1-(2-hydroxy-2-methylpropyl)-1H-pyrazol-4-yl)pyridin-4-yl)pyrazine-2-carboxamide] | 10 to 100 | – | – |
| Nc1ncc(-c2cc(-c3cnn(CC(F)(F)F)c3)ccc2F)nc1C(=O)N[C@@H]1CNCC[C@H]1O [Example 10, 3-amino-6-(2-fluoro-5-(1-(2,2,2-trifluoroethyl)-1H-pyrazol-4-yl)phenyl)-N-((3R,4R)-4-hydroxypiperidin-3-yl) pyrazine-2-carboxamide] | 10 to 100 | 0.01 to 0.1 | – |
| Nc1ncc(-c2cc(-c3cnn(CC(F)(F)F)c3)ccc2F)nc1C(=O)N[C@H]1CCC2(CC2)NC1 [Example 8, (S)-3-amino-6-(2-fluoro-5-(1-(2,2,2-trifluoroethyl)-1H-pyrazol-4-yl)phenyl)-N-(4-azaspiro[2.5]octan-6-yl)pyrazine-2-carboxamide] | 10 to 100 | 0.01 to 0.1 | – |
| COc1cccc2c1C(=O)c1c(O)c3c(c(O)c1C2=O)C[C@@](O)(C(=O)CO)C[C@@H]3O[C@H]1C[C@H](N)[C@H](O)[C@H](C)O1 [doxorubicin, reference compound] | – | – | IC50 [1, 3]: 1.5 µM |
| Nc1ncc(-c2cc(-c3cnn(CC(F)(F)F)c3)ccc2F)nc1C(=O)N[C@@H]1CNC[C@H]1O [Example 11, 3-amino-6-(2-fluoro-5-(1-(2,2,2-trifluoroethyl)-1H-pyrazol-4-yl)phenyl)-N-((3R,4R)-4-hydroxypyrrolidin-3-yl) pyrazine-2-carboxamide] | 10 to 100 | 0.01 to 0.1 | – |
| CC1(C)Cc2c(-c3cc(-c4cnc(N)c(C(=O)N[C@@H]5CNC[C@@H](F)C5)n4)ccn3)cnn2C1 [Example 48, 3-amino-6-(2-(5,5-dimethyl-5,6-dihydro-4H-pyrrolo[1,2-b]pyrazol-3-yl)pyridin-4-yl)-N-((3S,5S)-5-fluoropiperidin-3-yl)pyrazine-2-carboxamide] | 10 to 100 | ≤ 0.01 | – |
| Nc1ncc(-c2ccnc(-c3cnn(CC(F)(F)F)c3)c2)nc1C(=O)N[C@@H]1CNCC(F)(F)C1 [Example 13, (S)-3-amino-N-(5,5-difluoropiperidin-3-yl)-6-(2-(1-(2,2,2-trifluoroethyl)-1H-pyrazol-4-yl)pyridin-4-yl)pyrazine-2-carboxamide] | ≤ 10 | 0.1 to 1 | IC50 [1, 3]: 8.59 µM; IC50 ([1]; combination with cisplatin, read-out: Administered in combination with cisplatin (IC50)): 2.93 µM; IC50 ([1]; combination with doxorubicin, read-out: Administered in combination with doxorubicin (IC50)): 0.91 µM |
| Nc1ncc(-c2cc(-c3cnn(CC(F)(F)F)c3)ccc2O)nc1C(=O)N[C@@H]1CNC[C@@H](F)C1 [Example 23, 3-amino-N-((3S,5S)-5-fluoropiperidin-3-yl)-6-(2-hydroxy-5-(1-(2,2,2-trifluoroethyl)-1H-pyrazol-4-yl)phenyl)pyrazine-2-carboxamide] | 10 to 100 | ≤ 0.01 | – |
| CC1(C)Cc2c(-c3ccc(F)c(-c4cnc(N)c(C(=O)N[C@@H]5CNCC[C@H]5O)n4)c3)cnn2C1 [Example 47, 3-amino-6-(5-(5,5-dimethyl-5,6-dihydro-4H-pyrrolo[1,2-b]pyrazol-3-yl)-2-fluorophenyl)-N-((3R,4R)-4-hydroxypiperidine-3-yl) pyrazine-2-carboxamide] | 10 to 100 | 0.01 to 0.1 | – |

Second part, led by results:

| IC50 [1, 2] [µM] | IC50 (Chk2 kinase) [µM] | SMILES | also measured |
| --- | --- | --- | --- |
| 10 to 100 | ≤ 0.01 | CC1(C)Cc2c(-c3cccc(-c4cnc(N)c(C(=O)N[C@@H]5CNCCC5(F)F)n4)c3)cnn2C1 [Example 58, 3-amino-N-(4,4-difluoropiperidin-3-y)-6-(3-(5,5-dimethyl-5,6-dihydro-4H-pyrrolo[1,2-b]pyrazol-3-yl)phenyl)pyrazine-2-carboxamide] | – |
| > 100 | ≤ 0.01 | CC1(C)Cc2c(-c3cccc(-c4cnc(N)c(C(=O)N[C@@H]5CNCCOC5)n4)c3)cnn2C1 (stereo in doubt) [Example 61, 3-amino-6-(3-(5,5-dimethyl-5,6-dihydro-4H-pyrrolo[1,2-b]pyrazol-3-yl)phenyl)-N-(1,4-oxazepan-6-yl)pyrazine-2-carboxamide] | – |
| 10 to 100 | ≤ 0.01 | CC1(C)Cc2c(-c3nccc(-c4cnc(N)c(C(=O)N[C@H]5CCC6(CC6)NC5)n4)n3)cnn2C1 [Example 63, (S)-3-amino-6-(2-(5,5-dimethyl-5,6-dihydro-4H-pyrrolo[1,2-b]pyrazol-3-yl)pyrimidin-4-yl)-N-(4-azaspiro[2.5]octan-6-yl) pyrazine-2-carboxamide] | – |
| 10 to 100 | 0.01 to 0.1 | CC1(C)Cc2c(-c3cccc(-c4cnc(N)c(C(=O)N[C@H]5CNC[C@@H]5F)n4)c3)cnn2C1 [Example 62, 3-amino-6-(3-(5,5-dimethyl-5,6-dihydro-4H-pyrrolo[1,2-b]pyrazol-3-yl)phenyl)-N-((3S,4S)-4-fluoropyrrolidin-3-yl) pyrazine-2-carboxamide] | – |
| 10 to 100 | ≤ 0.01 | CC1(C)Cc2c(-c3ccc(O)c(-c4cnc(N)c(C(=O)N[C@@H]5CNC[C@@H](F)C5)n4)c3)cnn2C1 [Example 55, 3-amino-6-(5-(5,5-dimethyl-5,6-dihydro-4H-pyrrolo[1,2-b]pyrazol-3-yl)-2-hydroxyphenyl)-N-((3S,5S)-5-fluoropiperidin-3-yl)pyrazine-2-carboxamide] | – |
| > 100 | ≤ 0.01 | CC1(C)Cc2c(-c3cc(-c4cnc(N)c(C(=O)N[C@@H]5CNC[C@H]5O)n4)ccn3)cnn2C1 [Example 54, 3-amino-6-(2-(5,5-dimethyl-5,6-dihydro-4H-pyrrolo[1,2-b]pyrazol-3-yl)pyridin-4-yl)-N-((3R,4R)-4-hydroxypyrrolidin-3-yl)pyrazine-2-carboxamide] | – |
| 10 to 100 | ≤ 0.01 | CC1(C)Cc2c(-c3ccc(O)c(-c4cnc(N)c(C(=O)N[C@H]5CCC6(CC6)NC5)n4)c3)cnn2C1 [Example 56, (S)-3-amino-6-(5-(5,5-dimethyl-5,6-dihydro-4H-pyrrolo[1,2-b]pyrazol-3-yl)-2-hydroxyphenyl)-N-(4-azaspiro[2.5]octan-6-yl)pyrazine-2-carboxamide] | – |
| – | ≤ 0.01 | CC1(C)Cc2c(-c3cccc(-c4cnc(N)c(C(=O)N[C@H]5CCC6(CC6)NC5)n4)c3)cnn2C1 [Example 51, (S)-3-amino-6-(3-(5,5-dimethyl-5,6-dihydro-4H-pyrrolo[1,2-b]pyrazol-3-yl)phenyl)-N-(4-azaspiro[2.5]octan-6-yl)pyrazine-2-carboxamide] | IC50 ([1]; graded, read-out: Celltiter glo analysis (IC50)): 10 to 100 µM |
| > 100 | 0.01 to 0.1 | CC1(C)Cc2c(-c3cc(-c4cnc(N)c(C(=O)N[C@@H]5CNCC[C@H]5O)n4)ccn3)cnn2C1 [Example 53, 3-amino-6-(2-(5,5-dimethyl-5,6-dihydro-4H-pyrrolo[1,2-b]pyrazol-3-yl)pyridin-4-yl)-N-((3R,4R)-4-hydroxypiperidin-3-yl)pyrazine-2-carboxamide] | – |
